# Source: patent US9481677B2, “Biaryl ether sulfonamides and their use as therapeutic agents” (XENON PHARMACEUTICALS INC., priority 2011, dated 2016)
# Target: Nav1.7 (Homo sapiens (Human), UniProt Q15858)
# Experiment: Patch voltage clamp electrophysiology, block of inactivated-state Nav1.7 in HEK-293 cells
# Format: cell-based
# Conditions: affinity for the inactivated state; HEK-293 cells with β1 subunit; held at -60 mV; read-out: NaV1.7 (IC50 class)
# Procedure: Patch voltage clamp electrophysiology allows for the direct measurement and quantification of block of voltage-gated sodium channels (Nav's), and allows the determination of the time- and voltage-dependence of block which has been interpreted as differential binding to the resting, open, and inactivated states of the sodium channel (Hille, B., Journal of General Physiology (1977), 69: 497-515).
# The following patch voltage clamp electrophysiology studies were performed on representative compounds of the invention using human embryonic kidney cells (HEK), permanently transfected with an expression vector containing the full-length cDNA coding for the desired human sodium channel α-subunit, grown in culture media containing 10% FBS, 1% PSG, and 0.5 mg/mL G418 at 37° C. with 5% CO2. […] Nav1.7 and Nav1.5 cDNAs (NM_002977 and AC137587; SCN5A, respectively) were stably expressed in HEK-293 cells. The β1 subunit was coexpressed only in the Nav1.7 cell line.
# Sodium currents were measured using the patch clamp technique in the whole-cell configuration using either a PatchXpress automated voltage clamp or manually using an Axopatch 200B (Axon Instruments) or Model 2400 (A-M systems) amplifier. […] The pipette was filled with a solution comprised of: 5 mM NaCl, 10 mM CsCl, 120 mM CsF, 0.1 mM CaCl2, 2 mM MgCl2, 10 mM HEPES, 10 mM EGTA; and adjusted to pH 7.2 with CsOH. The external solution had the following composition: 140 mM NaCl, 5 mM KCl, 2 mM CaCl2, 1 mM MgCl2, 10 mM HEPES; and adjusted to pH 7.4 with NaOH. In some studies, the external sodium was reduced by equimolar replacement with choline. Osmolarity in the CsF internal and NaCl external solutions was adjusted to 300 mOsm/kg and 310 mOsm/kg with glucose, respectively. All recordings were performed at ambient temperature in a bath chamber with a volume of 150 μL. Control sodium currents were measured in 0.5% DMSO. Controls and representative compounds of the invention were applied to the recording chamber through a 4-pinch or 8-pinch valve bath perfusion system manufactured by ALA Scientific Instruments.
# Currents were recorded at 40 kHz sampling frequency, filtered at […], and stored using a Digidata-1322A analogue/digital interface with the pClamp software (Axon Instruments). Series resistance compensation was applied (60-80%). […] All statistics in this study are given as mean±SD.
# The membrane potential was maintained at a voltage where inactivation of the channel is complete (which was −60 mV for both Nav1.7 and Nav1.5). The voltage is then stepped back to a very negative (Vhold=−150 mV) voltage for 20 ms and then a test pulse is applied to quantify the compound block. […] The percent decrease in sodium current following wash-on of compound was taken as the percent block of sodium channels.
# The Example numbers provided in Table 1 and Table 2 correspond to the Examples herein.
# Nav1.7, sequence (Q15858 other isoform, or with tags, fused parts or gaps): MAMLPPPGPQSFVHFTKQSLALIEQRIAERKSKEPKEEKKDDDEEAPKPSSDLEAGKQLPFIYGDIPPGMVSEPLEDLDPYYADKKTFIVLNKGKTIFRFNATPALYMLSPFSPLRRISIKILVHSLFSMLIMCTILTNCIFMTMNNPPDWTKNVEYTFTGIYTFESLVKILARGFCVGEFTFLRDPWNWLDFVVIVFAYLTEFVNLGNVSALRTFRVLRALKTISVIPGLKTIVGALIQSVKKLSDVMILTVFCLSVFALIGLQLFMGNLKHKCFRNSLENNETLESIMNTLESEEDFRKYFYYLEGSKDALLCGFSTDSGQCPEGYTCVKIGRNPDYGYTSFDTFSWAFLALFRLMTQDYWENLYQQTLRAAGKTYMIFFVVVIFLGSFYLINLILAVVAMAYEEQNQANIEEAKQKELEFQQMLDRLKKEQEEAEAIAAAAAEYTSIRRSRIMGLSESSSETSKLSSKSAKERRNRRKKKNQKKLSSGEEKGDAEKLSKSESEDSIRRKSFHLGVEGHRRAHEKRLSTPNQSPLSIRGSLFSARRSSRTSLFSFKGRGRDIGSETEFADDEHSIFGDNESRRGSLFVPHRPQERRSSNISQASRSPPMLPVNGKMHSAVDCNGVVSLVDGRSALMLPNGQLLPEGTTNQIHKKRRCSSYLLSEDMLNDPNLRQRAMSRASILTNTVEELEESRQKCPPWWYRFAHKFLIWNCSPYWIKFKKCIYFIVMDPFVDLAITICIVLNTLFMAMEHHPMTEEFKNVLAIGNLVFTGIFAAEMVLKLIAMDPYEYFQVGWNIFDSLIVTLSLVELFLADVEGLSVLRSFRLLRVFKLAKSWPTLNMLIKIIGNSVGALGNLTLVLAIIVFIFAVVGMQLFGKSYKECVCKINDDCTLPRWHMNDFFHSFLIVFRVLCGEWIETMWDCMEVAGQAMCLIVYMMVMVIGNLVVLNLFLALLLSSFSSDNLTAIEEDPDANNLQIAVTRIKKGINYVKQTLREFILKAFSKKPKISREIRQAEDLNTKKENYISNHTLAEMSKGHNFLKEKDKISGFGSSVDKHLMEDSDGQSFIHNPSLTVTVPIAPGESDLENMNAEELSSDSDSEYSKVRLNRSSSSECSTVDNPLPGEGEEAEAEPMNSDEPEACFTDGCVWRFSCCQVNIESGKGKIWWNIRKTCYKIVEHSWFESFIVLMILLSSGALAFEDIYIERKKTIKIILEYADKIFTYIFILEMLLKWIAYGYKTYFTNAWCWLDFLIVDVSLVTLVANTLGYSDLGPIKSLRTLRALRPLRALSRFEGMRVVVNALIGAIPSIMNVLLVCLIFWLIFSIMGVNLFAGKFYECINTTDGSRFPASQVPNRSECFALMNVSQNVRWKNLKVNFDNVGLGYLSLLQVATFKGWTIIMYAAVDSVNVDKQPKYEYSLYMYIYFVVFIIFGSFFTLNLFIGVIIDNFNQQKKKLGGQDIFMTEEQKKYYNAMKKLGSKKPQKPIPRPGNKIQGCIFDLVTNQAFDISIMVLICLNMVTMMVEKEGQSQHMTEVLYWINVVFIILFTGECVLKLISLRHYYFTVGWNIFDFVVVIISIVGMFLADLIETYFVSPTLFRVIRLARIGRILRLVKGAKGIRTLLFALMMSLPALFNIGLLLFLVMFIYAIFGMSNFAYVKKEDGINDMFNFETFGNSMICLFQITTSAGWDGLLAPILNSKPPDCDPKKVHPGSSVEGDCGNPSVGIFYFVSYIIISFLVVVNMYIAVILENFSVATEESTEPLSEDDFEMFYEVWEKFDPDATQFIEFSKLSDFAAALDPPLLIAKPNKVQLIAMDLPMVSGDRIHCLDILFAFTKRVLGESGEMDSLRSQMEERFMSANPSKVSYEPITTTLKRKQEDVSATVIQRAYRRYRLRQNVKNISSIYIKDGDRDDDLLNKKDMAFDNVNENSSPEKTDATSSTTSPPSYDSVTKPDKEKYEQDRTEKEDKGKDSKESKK
# Nav1.7, sequence (Q07699 19-218 partner): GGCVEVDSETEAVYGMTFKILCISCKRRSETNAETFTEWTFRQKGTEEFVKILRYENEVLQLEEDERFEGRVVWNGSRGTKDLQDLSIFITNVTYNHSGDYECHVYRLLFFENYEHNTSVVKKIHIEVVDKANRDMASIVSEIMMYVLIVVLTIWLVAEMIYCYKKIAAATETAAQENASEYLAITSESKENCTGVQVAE
row,SMILES,IC50
1,"O=S(=O)(Nc1ncns1)c1cc(F)c(Oc2ccc(Cl)cc2-c2cccc3nccn23)cc1F [Example 30, 4-(4-chloro-2-(imidazo[1,2-a]pyridin-5-yl)phenoxy)-2,5-difluoro-N-(1,2,4-thiadiazol-5-yl)benzenesulfonamide]",≤ 100 nM
2,"O=S(=O)(Nc1ncns1)c1cc(F)c(Oc2ccc(Cl)cc2-c2ccnc3nccn23)cc1F [Example 31, 4-(4-chloro-2-(imidazo[1,2-a]pyrimidin-5-yl)phenoxy)-2,5-difluoro-N-(1,2,4-thiadiazol-5-yl)benzenesulfonamide]",≤ 100 nM
3,"O=S(=O)(Nc1ncns1)c1cc(F)c(Oc2ccc(Cl)cc2-c2cnc3n2CCNC3)cc1F [Example 32, 4-(4-chloro-2-(5,6,7,8-tetrahydroimidazo[1,2-a]pyrazin-3-yl)phenoxy)-2,5-difluoro-N-(1,2,4-thiadiazol-5-yl)benzenesulfonamide]",100 to 1000 nM
4,"O=c1[nH]cc(-c2cc(Cl)ccc2Oc2cc(F)c(S(=O)(=O)Nc3ncns3)cc2F)n2cncc12 [Example 35, 4-(4-chloro-2-(8-oxo-7,8-dihydroimidazo[1,5-a]pyrazin-5-yl)phenoxy)-2,5-difluoro-N-(1,2,4-thiadiazol-5-yl)benzenesulfonamide]",100 to 1000 nM
5,"O=S(=O)(Nc1ncns1)c1cc(F)c(Oc2ccc(Cl)cc2-c2ncc3cnccn23)cc1F [Example 36, 4-(4-chloro-2-(imidazo[1,5-a]pyrazin-3-yl)phenoxy)-2,5-difluoro-N-(1,2,4-thiadiazol-5-yl)benzenesulfonamide]",1000 to 10000 nM
6,"Nc1nc2cc(-c3cc(Cl)ccc3Oc3cc(F)c(S(=O)(=O)Nc4ncns4)cc3F)ccc2[nH]1 [Example 38, 4-(2-(2-amino-1H-benzo[d]imidazol-5-yl)-4-chlorophenoxy)-2,5-difluoro-N-(1,2,4-thiadiazol-5-yl)benzenesulfonamide]",≤ 100 nM
7,"Cn1cnc2c(-c3cc(Cl)ccc3Oc3cc(F)c(S(=O)(=O)Nc4ncns4)cc3F)ncnc21 [Example 39, 4-(4-chloro-2-(9-methyl-9H-purin-6-yl)phenoxy)-2,5-difluoro-N-(1,2,4-thiadiazol-5-yl)benzenesulfonamide]",1000 to 10000 nM
8,"O=S(=O)(Nc1ncns1)c1cc(F)c(Oc2ccc(Cl)cc2-n2cnc3cncnc32)cc1F [Example 40, 4-(4-chloro-2-(9H-purin-9-yl)phenoxy)-2,5-difluoro-N-(1,2,4-thiadiazol-5-yl)-benzenesulfonamide]",1000 to 10000 nM
9,"Nc1cnc2ccc(-c3cc(Cl)ccc3Oc3cc(F)c(S(=O)(=O)Nc4ncns4)cc3F)cn12 [Example 42, 4-(2-(3-aminoimidazo[1,2-a]pyridin-6-yl)-4-chlorophenoxy)-2,5-difluoro-N-(1,2,4-thiadiazol-5-yl)benzenesulfonamide]",≤ 100 nM
10,"Nc1noc2ccc(-c3cc(Cl)ccc3Oc3cc(F)c(S(=O)(=O)Nc4ncns4)cc3F)cc12 [Example 44, 4-(2-(3-aminobenzo[d]isoxazol-5-yl)-4-chlorophenoxy)-2,5-difluoro-N-(1,2,4-thiadiazol-5-yl)benzenesulfonamide]",≤ 100 nM
11,"Nc1n[nH]c2ccc(-c3cc(Cl)ccc3Oc3cc(F)c(S(=O)(=O)Nc4ncns4)cc3F)cc12 [Example 45, 4-(2-(3-amino-1H-indazol-5-yl)-4-chlorophenoxy)-2,5-difluoro-N-(1,2,4-thiadiazol-5-yl)benzenesulfonamide]",≤ 100 nM
12,"NC(=O)c1cnc2ccc(-c3cc(Cl)ccc3Oc3cc(F)c(S(=O)(=O)Nc4ncns4)cc3F)cn12 [Example 46, 6-(2-(4-(N-(1,2,4-thiadiazol-5-yl)sulfamoyl)-2,5-difluorophenoxy)-5-chlorophenyl)imidazo[1,2-a]pyridine-3-carboxamide]",≤ 100 nM
13,"O=c1[nH]c2ccc(-c3cc(Cl)ccc3Oc3cc(F)c(S(=O)(=O)Nc4ncns4)cc3F)cc2[nH]1 [Example 48, 4-(4-chloro-2-(2-oxo-2,3-dihydro-1H-benzo[d]imidazol-5-yl)phenoxy)-2,5-difluoro-N-(1,2,4-thiadiazol-5-yl)benzenesulfonamide]",≤ 100 nM
14,"Nc1noc2ccc(-c3cc(Cl)ccc3Oc3cc(F)c(S(=O)(=O)Nc4cscn4)cc3F)cc12 [Example 49, 4-(2-(3-aminobenzo[d]isoxazol-5-yl)-4-chlorophenoxy)-2,5-difluoro-N-(thiazol-4-yl)benzenesulfonamide]",≤ 100 nM
15,"O=S(=O)(Nc1ncns1)c1cc(F)c(Oc2ccc(Cl)cc2-c2ccc3ocnc3c2)cc1F [Example 51, 4-(2-(benzo[d]oxazol-5-yl)-4-chlorophenoxy)-2,5-difluoro-N-(1,2,4-thiadiazol-5-yl)benzenesulfonamide]",≤ 100 nM
16,"O=c1[nH]c2cc(-c3cc(Cl)ccc3Oc3cc(F)c(S(=O)(=O)Nc4ncns4)cc3F)ccc2o1 [Example 52, 4-(4-chloro-2-(2-oxo-2,3-dihydrobenzo[d]oxazol-5-yl)phenoxy)-2,5-difluoro-N-(1,2,4-thiadiazol-5-yl)benzenesulfonamide]",≤ 100 nM
17,"O=c1[nH]c2ccc(-c3cc(Cl)ccc3Oc3cc(F)c(S(=O)(=O)Nc4ncns4)cc3F)cc2o1 [Example 53, 4-(4-chloro-2-(2-oxo-2,3-dihydrobenzo[d]oxazol-6-yl)phenoxy)-2,5-difluoro-N-(1,2,4-thiadiazol-5-yl)benzenesulfonamide]",≤ 100 nM
18,"O=S(=O)(Nc1ncns1)c1cc(F)c(Oc2ccc(Cl)cc2-c2ccc3[nH]c(C(F)(F)F)nc3c2)cc1F [Example 54, 4-(4-chloro-2-(2-(trifluoromethyl)-1H-benzo[d]imidazol-5-yl)phenoxy)-2,5-difluoro-N-(1,2,4-thiadiazol-5-yl)benzenesulfonamide]",≤ 100 nM
19,"O=C1Cc2ccc(-c3cc(Cl)ccc3Oc3cc(F)c(S(=O)(=O)Nc4ncns4)cc3F)cc2N1 [Example 55, 4-(4-chloro-2-(2-oxoindolin-6-yl)phenoxy)-2,5-difluoro-N-(1,2,4-thiadiazol-5-yl)benzenesulfonamide]",≤ 100 nM
20,"Nc1nc2ccc(-c3cc(Cl)ccc3Oc3cc(F)c(S(=O)(=O)Nc4ncns4)cc3F)cc2o1 [Example 57, 4-(2-(2-aminobenzo[d]oxazol-6-yl)-4-chlorophenoxy)-2,5-difluoro-N-(1,2,4-thiadiazol-5-yl)benzenesulfonamide]",≤ 100 nM
21,"Nc1noc2ccc(-c3ccccc3Oc3cc(F)c(S(=O)(=O)Nc4ncns4)cc3F)cc12 [Example 58, 4-(2-(3-aminobenzo[d]isoxazol-5-yl)phenoxy)-2,5-difluoro-N-(1,2,4-thiadiazol-5-yl)benzenesulfonamide]",≤ 100 nM
22,"O=S(=O)(Nc1ncns1)c1cc(F)c(Oc2ccc(Cl)cc2-c2ccc3nccnc3c2)cc1F [Example 59, 4-(4-chloro-2-(quinoxalin-6-yl)phenoxy)-2,5-difluoro-N-(1,2,4-thiadiazol-5-yl)benzenesulfonamide]",≤ 100 nM
23,"Nc1noc2ccc(-c3cc(Cl)ccc3Oc3cc(F)c(S(=O)(=O)Nc4ncccn4)cc3F)cc12 [Example 63, 4-(2-(3-aminobenzo[d]isoxazol-5-yl)-4-chlorophenoxy)-2,5-difluoro-N-(pyrimidin-2-yl)benzenesulfonamide]",≤ 100 nM
24,"Nc1noc2ccc(-c3cc(Cl)ccc3Oc3cc(F)c(S(=O)(=O)Nc4ncns4)c(F)c3)cc12 [Example 64, 4-(2-(3-aminobenzo[d]isoxazol-5-yl)-4-chlorophenoxy)-2,6-difluoro-N-(1,2,4-thiadiazol-5-yl)benzenesulfonamide]",≤ 100 nM
25,"Nc1noc2ccc(-c3cc(Cl)ccc3Oc3ccc(S(=O)(=O)Nc4ncns4)c(F)c3F)cc12 [Example 65, 4-(2-(3-aminobenzo[d]isoxazol-5-yl)-4-chlorophenoxy)-2,3-difluoro-N-(1,2,4-thiadiazol-5-yl)benzenesulfonamide]",≤ 100 nM
26,"CNc1noc2ccc(-c3cc(Cl)ccc3Oc3cc(F)c(S(=O)(=O)Nc4ncns4)cc3F)cc12 [Example 69, 4-(4-chloro-2-(3-(methylamino)benzo[d]isoxazol-5-yl)phenoxy)-2,5-difluoro-N-(1,2,4-thiadiazol-5-yl)benzenesulfonamide]",≤ 100 nM
27,"O=S(=O)(Nc1ncns1)c1cc(F)c(Oc2ccc(Cl)cc2-c2ccc3[nH]cnc3c2)cc1F [Example 73, 4-(2-(1H-benzo[d]imidazol-5-yl)-4-chlorophenoxy)-2,5-difluoro-N-(1,2,4-thiadiazol-5-yl)benzenesulfonamide]",≤ 100 nM
